# Reference: patent publication US20080167188A1, “Herbicide Combinations Comprising Special Ketoenoles” (priority 2004, published 2008)
# Legend:
# Format in all cases: in vivo
# PESGL = assay: field trial, herbicidal activity against PESGL; settings: 2 to 3 repetitions, highest efficacy of three assessment days, g of a.i./ha: Ex. A.5 20, Glufosinate 400, combination 20 + 400
# Description: (§1) The reported results originate from field trials carried out in 2 to 3 repetitions. The weed grasses or crops are sown. The activities are assessed on three days; what is reported are the highest efficacies.
# TRZAS = assay: field trial, herbicidal activity against TRZAS; settings: 2 to 3 repetitions, highest efficacy of three assessment days, g of a.i./ha: Ex. A.5 20, Glufosinate 400, combination 20 + 400
# Description: as §1
# BROSTE = assay: field trial, herbicidal activity against BROSTE; settings: 2 to 3 repetitions, highest efficacy of three assessment days, g of a.i./ha: Ex. A.1 20, Metazachlor 1000, combination 20 + 1000
# Description: as §1
# AGGRE = assay: field trial, herbicidal activity against AGGRE; settings: 2 to 3 repetitions, highest efficacy of three assessment days, g of a.i./ha: Ex. A.1 20, Metazachlor 1000, combination 20 + 1000
# Description: as §1
# ALOMY = assay: field trial, herbicidal activity against ALOMY; settings: 2 to 3 repetitions, highest efficacy of three assessment days, g of a.i./ha: Ex. A.1 20, Metazachlor 1000, combination 20 + 1000
# Description: as §1
SMILES,% Activity PESGL (PESGL) [%],% Activity TRZAS (TRZAS) [%],% Activity BROSTE (BROSTE) [%],% Activity AGGRE (AGGRE) [%],% Activity ALOMY (ALOMY) [%]
"CP(=O)(O)CCC(N)C(=O)O (racemic) [Glufosinate (B4.2), 4-[hydroxy(methyl)phosphinoyl]-DL-homoalanine]",20,20,,,
CCOC(=O)OC1=C(c2c(CC)cc(Cl)cc2OC)C(=O)NC12CCC(OC)CC2 (stereo not shown) [Ex. A.5],70,69,,,
CCc1cc(Cl)cc(OC)c1C1=C(O)C2(CCC(OC)CC2)NC1=O (stereo not shown) [Ex. A.1],,,35,60,42
"Cc1cccc(C)c1N(Cn1cccn1)C(=O)CCl [Metazachlor (B 3.20), 2-chloro-N-(2,6-dimethylphenyl)-N-(1H-pyrazol-1-ylmethyl)acetamide]",,,45,10,28
